Results as given in PMC8763382, “2-Sulfonylpyrimidines as Privileged Warheads for the Development of S. aureus Sortase A Inhibitors” (Frontiers in Molecular Biosciences, 2022).
“And” between values parts separate entries of the source, which are not always exact repeats. Identical values can stand only once.

Experiments:
Cys184 = Cys184 (UniProt position 184, LTLITCDDYNE); assay: NMR; settings: free enzyme (inferred); cited from earlier work
His120 = His120 (UniProt position 120, ISIAGHTFIDR); settings: free enzyme (inferred); cited from earlier work
S. aureus SrtA [1] = molecular target: T1, S. aureus SrtA (Staphylococcus aureus, UniProt Q2FV99); assay: fluorometric enzyme assay of SrtA transpeptidation (Abz-LPETG-Dap(Dnp)-OH substrate); format: biochemical; settings: for SrtA inhibition (in words): fluorometric enzyme assay, inhibitor concentration 100 µM; for inhibition at 100 µM: read-out: SrtA inhibition relative to the DMSO control; for S. I. (k 2nd/k chem): SrtA k 2nd over cysteine k chem; for k inact: maximum inactivation rate; for k inact / KI (inactivation) / k 2nd: Tris pH 7.50, n. i. = <20% inhibition at 100 µM; for KI (inactivation): read-out: KI, dissociation constant of the reversible enzyme-inhibitor complex; for k 2nd: second-order rate of inhibition
T1 construct: His tag (inferred from IMAC on a HisTrap column); made in house; host or cells: E. coli BL21 Gold (DE3)
Protocol: To evaluate the inhibition potency of the parent sulfonylpyrimidine 4, this compound was tested by means of a fluorometric enzyme assay with recombinantly expressed S. aureus SrtA ([Schmohl et al., 2017b]) and Abz-LPETG-Dap (Dnp)-OH as substrate. […] To verify the irreversible mode of inhibition, we determined the maximum inactivation rate k inact, the dissociation constant of the reversible enzyme-inhibitor complex KI, and the second-order rate of inhibition k 2nd. For compound 4, a k inact = 0.00065 s^−1 was found, which is very low compared to other covalent SrtA inhibitors ([Chan et al., 2017]; [Barthels et al., 2020]; [Jaudzems et al., 2020]).
Inhibition assays of S. aureus SrtA transpeptidation reactions were performed as described previously ([Barthels et al., 2020]). Briefly, the recombinantly expressed SrtA (final concentration: 1 µM) was incubated in assay buffer (50 mM Tris, 150 mM NaCl, 5 mM CaCl2, pH 7.50) with 25 µM of the FRET-pair substrate Abz-LPETG-Dap (Dnp)-OH (Genscript, Piscataway, New Jersey) and 0.5 mM tetraglycine (Sigma Aldrich, St. Louis, Missouri). Inhibitors were added from DMSO stocks. Reactions were initiated by addition of SrtA and monitored for 30 min at 30°C in an Infinite M200 Pro plate reader with λex 320 nm/λem 430 nm (Tecan, Männedorf, Switzerland). Three technical replicates were carried out for each inhibitor in black flat-bottom 96-well plates (Greiner bio-one, Kremsmünster, Austria). The enzyme kinetics of irreversible SrtA inactivation were analyzed as described previously ([Barthels et al., 2020]).

[2] = molecular target: T2, human cathepsin B (hCatB) (Homo sapiens, UniProt P07858); assay: protease selectivity panel, fluorometric assay cathepsin B; format: biochemical; settings: 100 µM inhibitor; read-out: CatB inhibition relative to the DMSO control
T2 construct: purchased Calbiochem, Merck Millipore
Protocol: (§1) To investigate how these sulfonylpyrimidines affect the activity of other cysteine and serine proteases, a selectivity panel was constructed from a matrix of 6 diverse sulfonylpyrimidines and 6 different proteases. The compounds were assayed at a final compound concentration of 100 µM for the cysteine proteases human cathepsin B (hCatB), cathepsin L (hCatL), and T. brucei rhodesain (Rd). Furthermore, the serine proteases NS2B-NS3 from Zika virus (ZIKV), the homologous protease from Dengue virus (DENV), and the human protease urokinase plasminogen activator (uPA) were tested for their susceptibility.
(§2) Fluorometric assays of the ZIKV/DENV NS2B/NS3 protease were performed as described previously ([Maus et al., 2021]). The assay was carried out in triplicates at 25°C in assay buffer (50 mM Tris, pH 9.0, 20% glycerol (v/v), and 1 mM CHAPS). 100 µM Boc-Gly-Arg-Arg-AMC (Bachem, Bubendorf, Switzerland) was used as a substrate. Fluorometric assays for cathepsin B, cathepsin L, and rhodesain (Calbiochem, Merck Millipore, Burlington, Massachusetts) were performed as described previously ([Klein et al., 2020a]). Cbz-Phe-Arg-AMC (Bachem, Bubendorf, Switzerland) was used as substrate (100 μM for cathepsin B, 6.5 μM for cathepsin L, and 10 µM for rhodesain). Fluorometric assays for urokinase plasminogen activator were performed as described previously ([Angelini et al., 2012]). 240 µM Cbz-Gly-Arg-Arg-AMC (Bachem, Bubendorf, Switzerland) was used as a substrate.

cathepsin L (hCatL) = molecular target: T3, cathepsin L (hCatL) (Homo sapiens, UniProt P07711); assay: protease selectivity panel, fluorometric assay cathepsin L; format: biochemical; settings: 100 µM inhibitor; read-out: CatL inhibition relative to the DMSO control
T3 construct: purchased Calbiochem, Merck Millipore
Protocol: as §1, §2

T. brucei rhodesain (Rd) = molecular target: T4, T. brucei rhodesain (Rd) (Trypanosoma brucei rhodesiense, UniProt Q95PM0); assay: protease selectivity panel, fluorometric assay rhodesain; format: biochemical; settings: 100 µM inhibitor, n. i. = no inhibition at 100 µM; for inhibition at 100 µM: read-out: Rd inhibition relative to the DMSO control
T4 construct: purchased Calbiochem, Merck Millipore
Protocol: as §1, §2

[3] = molecular target: T5, NS2B-NS3 from Zika virus (ZIKV) (Zika virus, UniProt Q32ZE1); assay: protease selectivity panel, fluorometric assay ZIKV NS2B/NS3 protease; format: biochemical; settings: 100 µM inhibitor; read-out: ZIKV inhibition relative to the DMSO control
T5 construct: The ZIKV NS2B/NS3 protease is a serine protease and contains two non-catalytic cysteine residues
Protocol: as §1, §2

DENV NS2B/NS3 protease = DENV NS2B/NS3 protease (Dengue virus type 2, UniProt P29990); assay: protease selectivity panel, fluorometric assay DENV NS2B/NS3 protease; format: biochemical; settings: 100 µM inhibitor, n. i. = no inhibition at 100 µM; for inhibition at 100 µM: read-out: DENV inhibition relative to the DMSO control
Protocol: as §1, §2

[4] = molecular target: human protease urokinase plasminogen activator (uPA) (Homo sapiens, UniProt P00749); assay: protease selectivity panel, fluorometric assay urokinase plasminogen activator; format: biochemical; settings: 100 µM inhibitor; n. i. = no inhibition at 100 µM; read-out: uPA inhibition relative to the DMSO control
Protocol: as §1, §2

[5] = cysteine reactivity assay (competitive fluorescence assay with probe 8); format: physicochemical; settings: phosphate buffer (1×PBS) pH 7.5
Description: In order to study the kinetics of sulfonylpyrimidines reacting with free cysteine in solution, a strategy for a competitive fluorescence-based assay was adapted from previous works ([Epps and Taylor, 2001]; [Sameshima et al., 2017]). […] The reaction of probe 8 with cysteine liberates 4-methylumbelliferone as a fluorometrically detectable product (Figure 7A), and thus, the fluorescence increase can be described by the second-order rate constant k probe (Equation 1).
Upon the addition of competitive and irreversible cysteine modifiers such as sulfonylpyrimidines, the fluorescence increase of the probe reaction was hyperbolically attenuated (Figure 7B). According to the conceptual deduction described previously ([Epps and Taylor, 2001]; [Sameshima et al., 2017]), the experimental fluorescence curves can be analyzed by nonlinear regression as first-order reaction progress curves (Equation 2). The parameter k obs describes the curvature corresponding to the sum of the competing kinetics (Equation 3). Under the assumptions that 1) the competitive reaction between sulfonylpyrimidines vs. probe with cysteine is started by simultaneous addition, and 2) sulfonylpyrimidines are added at a much higher concentration than cysteine (5 µM) and the probe (5 µM), the k obs values depend substantially on the k chem value. The compound-specific second-order inactivation parameter k chem can be determined by linear regression from the k obs values of the dilution series (Equation 4). d[FL]/dt=kprobe[Cys][probe] (1) FL=[Cys]total⋅kprobe [probe]/kprobe [probe] + kchem [sulfonylpyrimidine](1−e^−kobs⋅t) (2) kobs=kchem [sulfonylpyrimidine]+kprobe [probe] (3) kchem=kobs/[sulfonylpyrimidine] (4)
Kinetic characterization of the reaction between sulfonylpyrimidines and cysteine was performed in degassed phosphate buffer (1×PBS, pH 7.5) or individual cases in bicarbonate buffer (20 mM NaHCO3, 100 mM NaCl, pH 7.5). Three technical replicates were carried out for each sulfonylpyrimidine in black flat-bottom 96-well plates. For this purpose, 50 µL buffered solution (including 5% (v/v) DMSO) of the respective sulfonylpyrimidine derivative (final: 250–3 µM) and the cysteine reactive probe 8 (final: 5 µM) were premixed. Reactions were initiated by the addition of 50 µL cysteine (final: 5 µM), dissolved in the respective buffer, and monitored for 30 min at 30°C in an Infinite M200 Pro plate reader with λex 380 nm/λem 460 nm. To calculate k obs and k chem values, fluorescence curves were fitted using the same non-linear regression as for in vitro inhibition of SrtA ([Barthels et al., 2020]).

[6] = in-solution reaction with free cysteine (ESI-MS / LC/MS); format: physicochemical
Protocol: Thus, we determined the point of nucleophilic thiol attack by means of ESI mass spectrometry between the reaction of compound 7a and cysteine in phosphate buffered solution at pH 7.5.
Furthermore, the influence of different solvents on the reaction of sulfonylpyrimidines with thiols in solution was investigated.
To a solution of 100 µM cysteine in phosphate-buffered saline (1×, pH 7.5), compound 5a or 7a (100 μM, 5% DMSO) was added and incubated for 10 min at room temperature. The negative labeling control was performed by mock treatment with DMSO. Samples were analyzed by LC/MS using an Agilent 1100 series HPLC system with an Agilent Poroshell 120 EC-C18 column (150 × 2.10 mm 4 μm; mobile phase: ACN/H2O 45:55 + 0.1% formic acid; flow rate: 0.4 ml/min) and electron spray ionization with the Agilent 1100 series LC/MSD Trap in positive ionization mode.

S. aureus SrtA [7] = molecular target: T1, S. aureus SrtA; assay: fluorometric enzyme assay of SrtA transpeptidation (Abz-LPETG-Dap(Dnp)-OH substrate); format: biochemical

T3 sequence (P07711 114-333): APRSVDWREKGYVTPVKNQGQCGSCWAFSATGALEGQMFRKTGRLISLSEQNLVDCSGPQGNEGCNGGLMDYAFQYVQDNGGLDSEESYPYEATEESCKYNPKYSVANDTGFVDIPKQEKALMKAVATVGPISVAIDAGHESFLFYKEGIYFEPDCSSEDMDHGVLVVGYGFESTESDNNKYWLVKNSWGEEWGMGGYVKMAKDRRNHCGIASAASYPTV
T5 sequence (Q32ZE1 1499-1676): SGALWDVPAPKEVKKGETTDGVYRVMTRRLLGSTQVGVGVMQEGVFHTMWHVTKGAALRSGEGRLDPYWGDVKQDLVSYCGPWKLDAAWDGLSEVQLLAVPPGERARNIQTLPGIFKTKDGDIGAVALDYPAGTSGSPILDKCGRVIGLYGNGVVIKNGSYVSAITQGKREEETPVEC
T5 sequence (Q32ZE1 1421-1460): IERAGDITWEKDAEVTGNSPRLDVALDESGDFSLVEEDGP
Chain of DENV NS2B/NS3 protease (P29990 1398-1437): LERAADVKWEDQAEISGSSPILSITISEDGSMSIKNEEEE
Chain of DENV NS2B/NS3 protease (P29990 1476-1653): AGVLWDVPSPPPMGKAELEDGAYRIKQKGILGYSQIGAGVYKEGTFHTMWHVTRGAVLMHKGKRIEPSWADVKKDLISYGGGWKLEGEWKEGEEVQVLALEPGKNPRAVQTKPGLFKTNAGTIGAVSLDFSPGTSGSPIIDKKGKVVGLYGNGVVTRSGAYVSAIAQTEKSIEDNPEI
T4 sequence (Q95PM0 entry or part of it): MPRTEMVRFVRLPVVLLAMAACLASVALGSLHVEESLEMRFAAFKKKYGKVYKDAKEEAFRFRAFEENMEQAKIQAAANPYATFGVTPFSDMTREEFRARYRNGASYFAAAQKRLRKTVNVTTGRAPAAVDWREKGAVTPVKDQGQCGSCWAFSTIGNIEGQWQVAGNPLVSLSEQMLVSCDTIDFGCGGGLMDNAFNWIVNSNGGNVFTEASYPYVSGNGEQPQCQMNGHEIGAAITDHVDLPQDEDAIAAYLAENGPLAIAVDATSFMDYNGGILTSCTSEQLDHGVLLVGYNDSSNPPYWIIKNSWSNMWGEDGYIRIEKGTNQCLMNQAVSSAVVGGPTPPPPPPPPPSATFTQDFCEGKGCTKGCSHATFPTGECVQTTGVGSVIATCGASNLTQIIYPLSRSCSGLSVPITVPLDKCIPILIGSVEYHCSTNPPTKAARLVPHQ
T1 sequence (Q2FV99 60-206): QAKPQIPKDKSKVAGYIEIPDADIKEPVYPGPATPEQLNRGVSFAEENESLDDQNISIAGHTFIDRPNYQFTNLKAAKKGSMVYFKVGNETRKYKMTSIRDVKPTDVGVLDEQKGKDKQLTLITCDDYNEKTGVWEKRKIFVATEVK

Compound | SrtA inhibition (in words) (S. aureus SrtA [1]) | inhibition at 100 µM (S. aureus SrtA [1]) [%] | inhibition at 100 µM [2] [%] | inhibition at 100 µM (cathepsin L (hCatL)) [%] | inhibition at 100 µM (T. brucei rhodesain (Rd)) [%] | inhibition at 100 µM [3] [%] | inhibition at 100 µM (DENV NS2B/NS3 protease) [%] | inhibition at 100 µM [4] [%] | Cysteine k chem [5] [M⁻¹ min⁻¹] | melting point [°C] | S. I. (k 2nd/k chem) (S. aureus SrtA [1]) | k inact (S. aureus SrtA [1]) | KI (inactivation) (S. aureus SrtA [1]) [µM] | k 2nd (S. aureus SrtA [1]) | other results
Sortase A (SrtA) (Staphylococcus aureus) |  |  |  |  |  |  |  |  |  |  |  |  |  |  | pKa (Cys184): 9.4; pKa (His120): 6.3
CS(=O)(=O)c1nc(Cl)cc(NC(=O)c2ccccc2Oc2ccccc2)n1 [Compound 6i] | complete loss of inhibition | 36 | 9.5 | 21.3 | 9.2 | 29.3 | 15 | 59.4 | 0 | 184 |  |  |  |  | 
CS(=O)(=O)c1ncc(Cl)c(C(=O)Nc2cccc(C(=O)c3ccccc3)c2)n1 [Compound 6a] |  | 98.4 | 5.6 | 18 |  | 18.6 | 5.1 | 2.2 | 63.3 ± 8.37 | 175 | 327 | 0.00986 ± 0.00128 s⁻¹ | 29.6 ± 9.39 | 20,785 ± 4,074 M^−1min^−1 | fold more potent based on the k 2nd value (S. aureus SrtA [1]; versus virtual screening hit 5a): 2.5 fold; Rd inhibition relative to the DMSO control (T. brucei rhodesain (Rd)): n. i.
CS(=O)(=O)c1ncc(Cl)c(C(=O)Nc2ccccc2Oc2ccccc2)n1 [Compound 6g] | complete abolition of inhibition | 21.8 | 11.8 | 29.4 | 15 | 18.3 | 2.6 | 67 |  | 177 |  |  |  |  | 
CS(=O)(=O)c1ncc(Br)c(C(=O)Nc2cccc(Oc3ccccc3)c2)n1 [Compound 7b] |  | 99.2 | 12.5 | 28.5 | 4.7 | 18.3 | 5.2 | 11.2 | 104.1 ± 19.4 | 153 | 134 | 0.01285 ± 0.00147 s⁻¹ | 55.9 ± 11.6 | 13,998 ± 1,462 M^−1min^−1 | 
CS(=O)(=O)c1ncc(Cl)c(C(=O)Nc2cccc(Oc3ccccc3)c2)n1 [Compound 5a] |  | 99 | 6.6 | 8.8 | 24.6 | 6.4 |  | 23 | 50.8 ± 16.6 | 156 | 159 | 0.0077 s⁻¹ and 0.00774 ± 0.00007 s⁻¹ | 57.6 ± 3.55 | 8,088 M^−1min^−1 and 8,088 ± 464 M^−1min^−1 | improvement of overall inhibition potency (k 2nd), factor (S. aureus SrtA [1]; versus parent compound 4): 10; DENV inhibition relative to the DMSO control (DENV NS2B/NS3 protease): n. i.; time to quantitative reaction with cysteine ([6]; compound 100 µM, cysteine 100 µM, phosphate buffered solution pH 7.5): < 10 min; reactivity with cysteine (in words) ([6]; water/DMSO mixtures, no buffer): No reactivity; k 2nd (S. aureus SrtA [7]; pH 6.5, Tris or Bis-Tris buffer): 4,384 M^−1min^−1; k 2nd (S. aureus SrtA [7]; pH 7.0, Tris or Bis-Tris buffer): 8,436 M^−1min^−1; k 2nd (S. aureus SrtA [7]; zwitterionic HEPES buffer at pH 7.5): 7,956 M^−1min^−1
